Results: ChEMBL document CHEMBL1201862, “PubChem BioAssay data set” (2004)
Activity calls are given as the source filed them.

Assays:
cells [1] = type: functional, cell-based
cells [2] = type: functional, cell-based; remark: listed apart in the source
[3] = blockers of HIV-1 envelope-mediated cell-cell fusion – cherry-pick, dose response (AID 652057); type: functional, cell-based
[4] = blockers of HIV-1 ZM109 envelope-driven cell-cell fusion – HeLa effector, CEM target cells, luciferase, cherry-pick, dose response (AID 652058); type: functional, cell-based;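 note: luciferase signal from HIV-1 Env mediated cell-cell fusion of effector and target cells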
[5] = off-target signal loss in HeLa-CEM21 co-culture – HeLa F-luc CTL cells, cherry-picked, counter-screen for HIV-1 Env fusion inhibitor project, dose response (AID 652040); type: functional, cell-based;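 note: potency for signal decrease marking cytotoxic or nonspecific inhibition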
[6] = luciferase reporter signal suppression in cells – H4 neuroglioma cells, luminescence, dose response (AID 1990); type: functional, cell-based
[7] = Luminescence Cell-Based Dose Response HTS to Identify Inhibitors of 5'UTR Stem-Loop Driven Prion Protein mRNA Translation in H4 Neuroglioblastoma Cells. [Related pubchem assays: 1827 (Project Summary), 1813 (Primary HTS)]; type: functional
[8] = alpha-synuclein stem-loop luciferase translation blockers – H4 neuroglioma cells, luminescence, confirmation (AID 1988); type: functional, cell-based
[9] = molecular target: T1, Ubiquitin-conjugating enzyme E2 N (Homo sapiens, UniProt P61088); type: functional;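 note: Dose-response confirmation in a TR-FRET assay detecting UBC13-driven polyubiquitin chain formation, inhibition measured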
T1 sequence (P61088 whole entry): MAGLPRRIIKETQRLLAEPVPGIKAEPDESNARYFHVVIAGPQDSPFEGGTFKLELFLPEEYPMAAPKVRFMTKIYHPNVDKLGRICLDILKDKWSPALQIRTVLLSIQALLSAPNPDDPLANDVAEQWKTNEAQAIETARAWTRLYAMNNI

[10] = reduction of Shn3 3'UTR-driven luciferase in osteoblasts – cell-based, Clone20 osteoblasts, firefly luciferase, cherry-picked, dose response (AID 624132); type: functional;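 note: firefly luciferase luminescence from reporter carrying the Shn3 3'UTR in osteoblasts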
[11] = loss of viability in HepG2 cells – cell-based, CellTiter-Glo, cherry-picked, cytotoxicity control for Shn3 inhibitor project, dose response (AID 624134); type: functional
[12] = non-specific 3'UTR reporter inhibition in Clone20-Shn3RL – cell-based, Renilla luciferase, cherry-picked, counter-screen for Shn3 inhibitor project, dose response (AID 624133); type: functional
[13] = Luminescence Cell-Based Dose Confirmation HTS to Identify Activators of 5'UTR Stem-Loop Driven Alpha-Synuclein mRNA Translation in H4 Neuroglioblastoma Cells. [Related pubchem assays: 1829 (Project Summary), 1814 (Primary HTS)]; type: functional
[14] = Luminescence Cell-Based Dose Response HTS to Identify Activators of Luciferase Translation or Activity in H4 […] Cells. [Related pubchem assays: 1829 (Project Summary), 1814 (Primary HTS)]; type: functional
H4 = assay: Luminescence Cell-Based Dose Response HTS to Identify Activators of 5'UTR Stem-Loop Driven Prion Protein mRNA Translation in H4 Neuroglioblastoma Cells. [Related pubchem assays: 1829 (Project Summary), 1814 (Primary HTS)]; type: functional; settings: Homo sapiens
[15] = molecular target: Induced myeloid leukemia cell differentiation protein Mcl-1 (Homo sapiens, UniProt Q07820); type: functional
Sequence of Induced myeloid leukemia cell differentiation protein Mcl-1 (Q07820 whole entry, the tested form may be a part): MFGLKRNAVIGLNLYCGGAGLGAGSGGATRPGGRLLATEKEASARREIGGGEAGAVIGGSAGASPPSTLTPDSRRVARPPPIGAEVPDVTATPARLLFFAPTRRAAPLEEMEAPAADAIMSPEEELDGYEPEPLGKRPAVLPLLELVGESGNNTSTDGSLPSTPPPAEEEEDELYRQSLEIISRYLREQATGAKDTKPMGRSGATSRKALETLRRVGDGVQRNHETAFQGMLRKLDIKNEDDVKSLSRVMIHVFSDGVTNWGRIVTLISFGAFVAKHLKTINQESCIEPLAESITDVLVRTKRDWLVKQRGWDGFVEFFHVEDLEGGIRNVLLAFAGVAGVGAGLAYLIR

[16] = HIV-1 AD8 envelope cell-cell fusion blockers – cherry-pick, dose response (AID 652062); type: functional, cell-based;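 note: luciferase signal from cell-cell fusion driven by HIV-1 clade B AD8 Env; potency is for inhibitors of fusion seen as a drop in luminescence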
Fatty acid synthase [17] = molecular target: T2, Fatty acid synthase (Homo sapiens, UniProt P49327); assay: inhibition of human FAS-TE enzyme activity – biochemical, endpoint fluorescence intensity, uHTS hits, dose response (AID 624327); type: functional;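 note: fluorescence from hydrolysis of an O-methyl fluorescein acyl ester substrate by the enzyme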
T2 sequence (P49327 whole entry): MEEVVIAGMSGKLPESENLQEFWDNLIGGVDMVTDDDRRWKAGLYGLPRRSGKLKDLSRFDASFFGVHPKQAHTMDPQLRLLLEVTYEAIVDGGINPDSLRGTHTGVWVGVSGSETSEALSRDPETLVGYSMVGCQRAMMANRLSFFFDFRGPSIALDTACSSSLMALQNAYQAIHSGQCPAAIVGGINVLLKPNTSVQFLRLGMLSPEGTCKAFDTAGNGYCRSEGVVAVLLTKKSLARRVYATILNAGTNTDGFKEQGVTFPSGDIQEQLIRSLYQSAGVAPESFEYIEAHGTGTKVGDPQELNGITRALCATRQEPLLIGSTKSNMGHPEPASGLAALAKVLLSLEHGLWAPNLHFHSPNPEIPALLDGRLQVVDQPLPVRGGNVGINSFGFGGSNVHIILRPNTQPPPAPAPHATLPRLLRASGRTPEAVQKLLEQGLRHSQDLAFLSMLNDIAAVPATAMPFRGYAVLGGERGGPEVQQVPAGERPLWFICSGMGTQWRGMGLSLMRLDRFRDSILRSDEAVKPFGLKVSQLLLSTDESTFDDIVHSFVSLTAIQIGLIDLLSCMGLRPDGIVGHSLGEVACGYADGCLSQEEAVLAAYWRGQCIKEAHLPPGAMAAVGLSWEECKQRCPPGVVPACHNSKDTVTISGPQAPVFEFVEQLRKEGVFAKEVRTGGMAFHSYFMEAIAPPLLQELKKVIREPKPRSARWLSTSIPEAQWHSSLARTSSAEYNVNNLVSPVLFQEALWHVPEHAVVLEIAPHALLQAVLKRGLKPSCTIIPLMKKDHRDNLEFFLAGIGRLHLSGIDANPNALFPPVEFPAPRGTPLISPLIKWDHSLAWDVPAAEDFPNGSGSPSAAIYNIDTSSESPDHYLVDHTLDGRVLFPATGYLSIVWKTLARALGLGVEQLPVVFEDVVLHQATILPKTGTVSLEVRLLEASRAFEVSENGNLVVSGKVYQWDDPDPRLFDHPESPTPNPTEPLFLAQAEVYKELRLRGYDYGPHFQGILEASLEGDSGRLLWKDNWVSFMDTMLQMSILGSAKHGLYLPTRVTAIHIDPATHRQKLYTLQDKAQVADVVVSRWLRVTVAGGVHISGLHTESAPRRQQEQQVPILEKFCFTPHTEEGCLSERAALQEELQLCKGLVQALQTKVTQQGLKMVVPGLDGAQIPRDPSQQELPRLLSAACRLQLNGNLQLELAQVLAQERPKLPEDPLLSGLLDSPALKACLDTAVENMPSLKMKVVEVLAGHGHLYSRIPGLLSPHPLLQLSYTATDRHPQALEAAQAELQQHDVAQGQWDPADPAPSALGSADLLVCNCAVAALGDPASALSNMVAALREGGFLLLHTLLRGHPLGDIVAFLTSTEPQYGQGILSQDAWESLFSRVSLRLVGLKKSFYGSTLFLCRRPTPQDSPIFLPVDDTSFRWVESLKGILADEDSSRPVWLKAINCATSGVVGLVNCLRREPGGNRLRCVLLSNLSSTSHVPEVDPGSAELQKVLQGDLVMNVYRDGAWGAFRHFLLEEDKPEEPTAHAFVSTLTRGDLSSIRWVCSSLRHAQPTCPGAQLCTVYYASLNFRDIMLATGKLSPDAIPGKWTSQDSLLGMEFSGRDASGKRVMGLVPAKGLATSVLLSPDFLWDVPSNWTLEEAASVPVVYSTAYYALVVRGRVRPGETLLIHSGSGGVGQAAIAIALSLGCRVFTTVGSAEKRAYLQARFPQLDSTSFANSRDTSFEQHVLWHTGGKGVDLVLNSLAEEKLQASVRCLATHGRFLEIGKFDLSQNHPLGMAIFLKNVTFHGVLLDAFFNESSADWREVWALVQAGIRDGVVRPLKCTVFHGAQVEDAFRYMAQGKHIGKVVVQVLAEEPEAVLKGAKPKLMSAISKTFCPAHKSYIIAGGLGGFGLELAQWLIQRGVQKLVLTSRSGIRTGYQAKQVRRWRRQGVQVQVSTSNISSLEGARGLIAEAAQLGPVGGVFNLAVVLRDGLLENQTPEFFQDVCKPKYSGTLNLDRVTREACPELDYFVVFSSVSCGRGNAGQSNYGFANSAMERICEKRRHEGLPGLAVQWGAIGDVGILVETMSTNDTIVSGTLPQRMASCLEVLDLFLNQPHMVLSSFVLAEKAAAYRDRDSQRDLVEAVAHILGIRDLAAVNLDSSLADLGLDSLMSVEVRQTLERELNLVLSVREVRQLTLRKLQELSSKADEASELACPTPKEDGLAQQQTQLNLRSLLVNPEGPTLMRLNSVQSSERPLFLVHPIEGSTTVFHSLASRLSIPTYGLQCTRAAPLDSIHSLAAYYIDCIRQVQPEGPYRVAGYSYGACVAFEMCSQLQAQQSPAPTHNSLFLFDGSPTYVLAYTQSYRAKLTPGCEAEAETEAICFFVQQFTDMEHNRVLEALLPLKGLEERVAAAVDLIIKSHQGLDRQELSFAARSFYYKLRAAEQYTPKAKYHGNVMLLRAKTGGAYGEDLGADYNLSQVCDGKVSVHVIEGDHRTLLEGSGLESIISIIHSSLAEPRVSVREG

Fatty acid synthase [18] = molecular target: T2, Fatty acid synthase; assay: inhibition of human FAS-TE enzyme activity – biochemical, kinetic fluorescence intensity, dose response (AID 624326); type: functional;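 note: rate of fluorescence rise from hydrolysis of a fluorogenic O-methyl fluorescein ester substrate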
[19] = NIH-3T3 fibroblast cytotoxicity, dose response, cytotoxicity control, cell-based, fluorescence, Alamar Blue, secondary assay (AID 2327); type: functional;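 note: NIH-3T3 mouse fibroblasts cultured with fluconazole at 8 µg/mL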
[20] = fluconazole-exposed Candida albicans growth modulators – fluorescence, retest, confirmation (AID 2467); type: functional, cell-based
[21] = Trypanosoma cruzi growth suppression in host cells – NIH3T3 host cells, beta-gal luminescence, confirmation (AID 2044); type: functional, cell-based;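 note: intracellular parasites grown in NIH/3T3 mouse fibroblasts as host cells; luminescent beta-galactosidase reporter signal from transgenic T. cruzi replicating inside host cells; inhibitors lower the luminescence signal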
[22] = NIH3T3 cell viability loss – ATP luminescence, mouse fibroblasts, counter-screen, dose response (AID 2010); type: functional, cell-based;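 note: cells exposed to compound for about 90 hours before reading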
[23] = Luminescence Cell-Based Dose Retest to Confirm Inhibitors of Cancer Stem Cells. [Related pubchem assays (depositor defined):AID2717, AID2721]; type: functional; settings: Homo sapiens
[24] = molecular target: T3, RNA-binding protein pos-1 (Caenorhabditis elegans, UniProt G5EF15); assay: disruptors of C. elegans POS-1 RNA interaction – biochemical, fluorescence polarization, dose response (AID 1964);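 note: purified POS-1 fused to maltose binding protein made in E. coli; potency of compounds blocking POS-1 binding to fluorescent RNA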
T3 sequence (G5EF15 whole entry): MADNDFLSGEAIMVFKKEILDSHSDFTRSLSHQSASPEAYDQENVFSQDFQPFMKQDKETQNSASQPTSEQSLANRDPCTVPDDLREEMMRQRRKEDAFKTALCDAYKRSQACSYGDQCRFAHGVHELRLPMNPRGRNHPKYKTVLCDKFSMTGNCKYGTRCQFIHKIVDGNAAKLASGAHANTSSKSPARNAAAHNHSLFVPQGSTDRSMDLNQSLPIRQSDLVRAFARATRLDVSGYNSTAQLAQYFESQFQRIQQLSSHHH

[25] = molecular target: T4, Zinc finger protein mex-5 (Caenorhabditis elegans, UniProt Q9XUB2); assay: potency of MEX-5 RNA-binding blockers – biochemical, C. elegans, fluorescence polarization, dose response (AID 1960)
T4 sequence (Q9XUB2 whole entry): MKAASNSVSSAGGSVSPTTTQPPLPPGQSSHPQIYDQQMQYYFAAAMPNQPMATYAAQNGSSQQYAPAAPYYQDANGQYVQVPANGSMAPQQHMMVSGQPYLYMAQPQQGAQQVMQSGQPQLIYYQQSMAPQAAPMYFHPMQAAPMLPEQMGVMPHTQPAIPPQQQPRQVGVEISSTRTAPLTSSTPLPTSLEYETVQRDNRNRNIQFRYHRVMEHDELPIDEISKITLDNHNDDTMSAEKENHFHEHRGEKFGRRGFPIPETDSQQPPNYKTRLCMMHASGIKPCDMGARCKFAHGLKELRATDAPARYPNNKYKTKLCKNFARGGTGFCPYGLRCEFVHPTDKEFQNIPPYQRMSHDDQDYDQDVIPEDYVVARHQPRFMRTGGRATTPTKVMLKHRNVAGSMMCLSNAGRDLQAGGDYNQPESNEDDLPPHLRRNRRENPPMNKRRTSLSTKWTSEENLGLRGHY

INS1 = assay: INS-1E survival protection against cytokine death – cell-based, luminescence, retest, dose response (AID 449756); type: functional; settings: Rattus norvegicus;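 note: cell death triggered by IL-1 beta plus TNF-alpha plus IFN-gamma mixture; protective hits raise ATP signal compared with cytokine alone wells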

## CCOP(=O)(C#CC(C)(C)C)C1(O)CCCCC1 (stereo unspecified)
Cells [1]
  EC50: > 350 µM (not active)
Cells [2]
  EC50: > 350 µM (not active)

## O=C(C1CCCCC1)N1CCCC(c2nc(O)c3nnn(Cc4ccccc4)c3n2)C1 (stereo unspecified)
[3]
  AC50: 11.1 µM (active)
[4]
  AC50: 18.5 µM (active)
[5]
  AC50: > 70 µM (inactive)

## CCOC(=O)c1cc(-c2ccc(OC)cc2F)nc2c1c(C)nn2CCC#N
[6]
  EC50: 17.7 µM (active)
[7]
  EC50: 20.2 µM (active)
[8]
  EC50: 23.3 µM (active)
[9]
  IC50: > 20 µM (inactive)

## CCN(CC)S(=O)(=O)c1ccc(-c2ccc(S(=O)(=O)N(CC)CC)cc2)cc1
[10]
  AC50: 3.81 µM (active)
[11]
  AC50: 6.43 µM (active)
[12]
  AC50: 3.13 µM (active)

## CC(C)(C)C1=CC=C(C(C)(C)C)C(=O)C1=O
[13]
  EC50: > 120 µM (not active)
[14]
  EC50: > 120 µM (not active)
H4
  EC50: > 120 µM (not active)
[15]
  IC50: 3.86 µM (active)

## COC(=O)[C@@]12CCCN1[C@H](c1ccc(-c3ccc(F)cc3)c(OC)c1)[C@H]1C(=O)N(C)C(=O)[C@H]12
[3]
  AC50: 2.93 µM (active)
[4]
  AC50: 1.38 µM (active)
[16]
  AC50: 25.5 µM (active)

## Cc1ccc(C(=O)NCCSC(C)(C)C)cc1[N+](=O)[O-]
Fatty acid synthase [17]
  IC50: 11.7 µM (active)
Fatty acid synthase [18]
  IC50: 8.25 µM (active)

## CCc1cccc(NC(=O)C2CCN(S(=O)(=O)c3ccc4c(c3)CC(C)N4C(C)=O)CC2)c1 (stereo unspecified)
[3]
  AC50: 30.3 µM (active)
[4]
  AC50: 6.68 µM (active)
[5]
  AC50: 48.5 µM (active)
[16]
  AC50: 10.6 µM (active)

## O=C1[C@H]2[C@@H](c3ccc(F)cc3)N3C(=O)N(c4ccccc4)C(=O)[C@@]3(Cc3ccccc3)[C@H]2C(=O)N1C1CCCCC1
[10]
  AC50: > 70 µM (inactive)
[11]
  AC50: 64.9 µM (active)
[12]
  AC50: 31.3 µM (active)
Fatty acid synthase [17]
  IC50: 17.5 µM (active)
Fatty acid synthase [18]
  IC50: 11 µM (active)

## CC[C@H](C)Cc1cn([C@@H](CCCN=C(NC(=O)OC(C)(C)C)NC(=O)OC(C)(C)C)C(=O)NCCCCCCCCCCC(=O)N2CCN(C(=O)OC(C)(C)C)CC2)nn1
[19]
  EC50: 83.3 µM (inconclusive)
[20]
  EC50: > 38 µM (not active)
[21]
  EC50: 1.04 µM (active)
[22]
  EC50: > 30 µM (not active)
[9]
  IC50: > 20 µM (inactive)

## CC[C@@]12C(=O)N(c3ccc(OC)cc3)C(=O)N1[C@H](c1ccc(Cl)cc1)[C@@H]1C(=O)N(C3CCCCC3)C(=O)[C@@H]12
[3]
  AC50: < 0.26 µM (active)
[4]
  AC50: 0.379 µM (active)
[5]
  AC50: 0.407 µM (active)
[16]
  AC50: 0.607 µM (active)

## CC(=O)N1c2ccc(S(=O)(=O)N3CCC(C(=O)Nc4cccc(F)c4)CC3)cc2CC1C (stereo unspecified)
[10]
  AC50: 4.54 µM (active)
[11]
  AC50: 48.7 µM (active)
[12]
  AC50: 12 µM (active)

## COc1cc(C(=O)NCCc2nc3ccccc3n2C)cc(OC)c1OC
Cells [1]
  EC50: > 350 µM (not active)
Cells [2]
  EC50: > 350 µM (not active)

## CCNC(=O)c1ccccc1NC(=O)c1cccc(S(=O)(=O)N2CCC(C)CC2)c1
[9]
  IC50: > 20 µM (inactive)

## CCn1c(SCC(=O)Nc2nncs2)nnc1-c1ccco1
Cells [1]
  EC50: > 350 µM (not active)
Cells [2]
  EC50: > 350 µM (not active)

## COc1ccc(C(CC(=O)Nc2cc([N+](=O)[O-])ccc2OC)c2ccccc2)cc1 (stereo unspecified)
Fatty acid synthase [17]
  IC50: 12.9 µM (active)
Fatty acid synthase [18]
  IC50: 12.5 µM (active)

## CC(=O)Nc1sc(-c2ccccc2)nc1-c1ccccc1
Cells [1]
  EC50: > 350 µM (not active)
Cells [2]
  EC50: > 350 µM (not active)

## CNc1sc(C(=O)c2ccc(F)cc2)c(N)c1-c1nc2ccccc2s1
[15]
  IC50: 2.45 µM (active)

## Cc1cccc(NC(=O)CSc2nc3c(oc4ccccc43)c(=O)n2-c2ccccc2)c1
Fatty acid synthase [17]
  IC50: 25.6 µM (inactive)
Fatty acid synthase [18]
  IC50: 51.3 µM (inactive)

## C/C=C\C=C/C(=O)Nc1cccc(C2=NOC3(C2)C[C@@H](C(N)=O)N(C(=O)c2ccccc2)C3)c1 (stereo partly specified)
[15]
  IC50: 6.9 µM (not active)

## Cc1ccc(-n2nc3c(c2NC(=O)c2ccco2)C[S+]([O-])C3)cc1 (stereo unspecified)
[5]
  AC50: 7.72 µM (active)

## O=C(/C=C/c1cccc([N+](=O)[O-])c1)NCCSCc1ccco1
Fatty acid synthase [17]
  IC50: 6.86 µM (active)
Fatty acid synthase [18]
  IC50: 10.1 µM (active)

## Cc1ccc(S(=O)(=O)N(C)C)cc1NC(=O)COc1ccccc1C(=O)Nc1ccccc1
[3]
  AC50: 1.78 µM (active)
[4]
  AC50: 2.56 µM (active)
[5]
  AC50: 3.87 µM (active)
[16]
  AC50: 8.41 µM (active)

## O=C(c1ccccc1)C(CN1CCCCC1)c1ccccc1 (stereo unspecified)
[10]
  AC50: 2.41 µM (active)
[11]
  AC50: 15.7 µM (active)
[12]
  AC50: 5.56 µM (active)

## CCN1C(=O)[C@H]2[C@@H](c3ccc(C)cc3)N3C(=O)N(c4cccc(Br)c4)C(=O)[C@@]3(CC(C)C)[C@H]2C1=O
[3]
  AC50: 0.26 µM (active)
[4]
  AC50: 0.374 µM (active)
[5]
  AC50: 0.382 µM (active)
[16]
  AC50: 0.672 µM (active)

## CC(C)(C)C1CCC(CN2C(Nc3ccccc3)=NC[C@@H]2Cc2ccccc2)CC1 (stereo partly specified)
[23]
  AC50: 6.47 µM (active)
[9]
  IC50: > 20 µM (inactive)

## COc1ccc(S(=O)(=O)Nc2ccc3c(c2)CC(=O)N([C@H](C)CO)C[C@H](C)[C@H](CN(C)S(=O)(=O)c2ccc(F)cc2)O3)cc1
[3]
  AC50: 0.384 µM (active)
[16]
  AC50: 10.6 µM (active)

## O=C(CCSc1nc2ccccc2s1)N/N=C/c1c(O)ccc2ccccc12
[24]
  EC50: 21.2 µM (active)
Cells [1]
  EC50: 8.97 µM (active)
[25]
  EC50: 14.6 µM (active)
Cells [2]
  EC50: 31.3 µM (active)
[23]
  AC50: 4.52 µM (active)
INS1
  AC50: 1.95 µM (active)

## Cc1ccc(/C=N/NC(=O)CN2CCN(Cc3ccccc3Cl)CC2)o1
Cells [1]
  EC50: > 350 µM (not active)
Cells [2]
  EC50: > 350 µM (not active)
